The values below come from patent publication US20210403435A1, “HERBICIDAL COMPOUNDS” (SYNGENTA CROP PROTECTION AG, priority 2018, published 2021).

Common to all, as to assay: Post-emergence efficacy, glasshouse, evaluated after 13 days
Common to all, as to assay type: in vivo

The subject of experiment [1] is Chenopodium album (CHEAL). To be noted: Chenopodium album, 312 h, read-out: Control of weed species CHEAL (100=total damage to plant; 0=no damage to plant). The method, then:
(§1) Seeds of a variety of test species were sown in standard soil in pots. After cultivation for 14 days (post-emergence) under controlled conditions in a glasshouse (at 24/16° C., day/night; 14 hours light; 65% humidity), the plants were sprayed with an aqueous spray solution derived from the dissolution of the technical active ingredient formula (I) in a small amount of acetone and a special solvent and emulsifier mixture referred to as IF50 (11.12% Emulsogen EL360 TM+44.44% N-methylpyrrolidone+44.44% Dowanol DPM glycol ether), to create a 50 g/l solution which was then diluted to required concentration using 0.25% or 1% Empicol ESC70 (Sodium lauryl ether sulphate)+1% ammonium sulphate as diluent.
(§2) The test plants were then grown in a glasshouse under controlled conditions (at 24/16° C., day/night; 14 hours light; 65% humidity) and watered twice daily. After 13 days the test was evaluated (100=total damage to plant; 0=no damage to plant).
(§3) Ipomoea hederacea (IPOHE), Euphorbia heterophylla (EPHHL), Chenopodium album (CHEAL), Amaranthus palmeri (AMAPA), Lolium perenne (LOLPE), Digitaria sanguinalis (DIGSA), Eleusine indica (ELEIN), Echinochloa crus-galli (ECHCG), Setaria faberi (SETFA)

Another experiment relates to Eleusine indica (ELEIN). The following applies: Eleusine indica, 312 h, read-out: Control of weed species ELEIN (100=total damage to plant; 0=no damage to plant). Here is the method: as §1, §2, §3
In a further experiment the test system is Setaria faberi (SETFA). To be noted: Setaria faberi, 312 h, read-out: Control of weed species SETFA (100=total damage to plant; 0=no damage to plant). The method, then: as §1, §2, §3
Experiment [2] concerns Echinochloa crus-galli (ECHCG). To be noted: Echinochloa crus-galli, 312 h, read-out: Control of weed species ECHCG (100=total damage to plant; 0=no damage to plant). Here is the method: as §1, §2, §3
In experiment [3] the test system is Digitaria sanguinalis (DIGSA). The following applies: Digitaria sanguinalis, 312 h, read-out: Control of weed species DIGSA (100=total damage to plant; 0=no damage to plant). Here is the method:
as §1, §2, §3

The subject of experiment [4] is Ipomoea hederacea (IPOHE). To be noted: Ipomoea hederacea, 312 h, read-out: Control of weed species IPOHE (100=total damage to plant; 0=no damage to plant). The method, then: as §1, §2, §3
The test system of experiment [5] is Euphorbia heterophylla (EPHHL). To be noted: Euphorbia heterophylla, 312 h, read-out: Control of weed species EPHHL (100=total damage to plant; 0=no damage to plant). Here is the method: as §1, §2, §3
Another experiment deals with Lolium perenne (LOLPE). To be noted: Lolium perenne, 312 h, read-out: Control of weed species LOLPE (100=total damage to plant; 0=no damage to plant). Here is the method:
as §1, §2, §3

The subject of experiment [6] is Amaranthus palmeri (AMAPA). The following applies: Amaranthus palmeri, 312 h; post-emergence application, 500 g/Ha, evaluated after 13 days; read-out: Control of weed species AMAPA (100=total damage to plant; 0=no damage to plant). The method, then:
as §1, §2, §3

[7] abbreviates: post-emergence application, 500 g/Ha, evaluated after 13 days.

Where a name gives a salt, the structure may show the parent alone. Read-outs that look alike come from different tables or passages of the source.

For the compound `CN(C(=O)c1cc[n+](CCC(=O)O)nc1)c1ccccc1` [Compound A38, 3-[4-[methyl(phenyl)carbamoyl]pyridazin-1-ium-1-yl]propanoic acid trifluoroacetate], the pest or weed control at 500 g/ha in experiment [1] (setting [7]) turned out to be 90%; in the experiment on Eleusine indica (ELEIN) (setting [7]), 60%; in the experiment on Setaria faberi (SETFA) (setting [7]), 90%; in experiment [2] (setting [7]), 60%; in [3] (setting [7]) it was 70%; in [4] (setting [7]), 40%. In addition, the pest or weed control at 500 g/ha in [5] (setting [7]) was 80%; in the experiment with Lolium perenne (LOLPE) (setting [7]), 20%; in [6], 100%.

`CCNC(=O)c1cc[n+](CCOS(=O)(=O)[O-])nc1` [Compound A80]: the pest or weed control at 500 g/ha in experiment [1] (setting [7]) stood at 100%; in the experiment with Eleusine indica (ELEIN) (setting [7]), 90%; in the experiment on Setaria faberi (SETFA) (setting [7]) it was 80%; in experiment [2] (setting [7]) it was 90%; in experiment [3] (setting [7]) it was 90%; in experiment [4] (setting [7]), 70%. For the same compound, the pest or weed control at 500 g/ha in experiment [5] (setting [7]) was determined as 90%; in the experiment with Lolium perenne (LOLPE) (setting [7]) it was 70%; in experiment [6], 100%.

Consider `CNC(=O)c1cc[n+](CCC(=O)O)nc1` [Compound A4, 3-[4-(methylcarbamoyl)pyridazin-1-ium-1-yl]propanoic acid trifluoroacetate], for which the pest or weed control at 500 g/ha in experiment [1] (post-emergence) was determined as 80%; in the experiment on Eleusine indica (ELEIN) (post-emergence), 100%; in the experiment with Setaria faberi (SETFA) (post-emergence), 90%; in experiment [2] (post-emergence), 90%; in experiment [3] (post-emergence), 100%; in experiment [4] (post-emergence), 80%. Also, the pest or weed control at 500 g/ha was 90% in [5] (post-emergence) and 60% with Lolium perenne (LOLPE) (post-emergence).

For the compound `CC(C)NC(=O)c1cc[n+](CCS(=O)(=O)O)nc1` [Compound A5], the pest or weed control at 500 g/ha in experiment [1] (setting [7]) was determined as 70%; in the experiment with Eleusine indica (ELEIN) (setting [7]), 40%; with Setaria faberi (SETFA) (setting [7]) it was 40%; in [2] (setting [7]), 60%; in experiment [3] (setting [7]) it was 50%; in experiment [4] (setting [7]) it was 60%. Also, the results for the pest or weed control at 500 g/ha (in experiment [5] (setting [7]); in the experiment on Lolium perenne (LOLPE) (setting [7]); in experiment [6]) were 30%, 50% and 90%, respectively.

As to `O=C(NC1CC1)c1cc[n+](CCS(=O)(=O)[O-])nc1` [Compound A30], the pest or weed control at 500 g/ha in experiment [1] (setting [7]) is 100%; in the experiment on Eleusine indica (ELEIN) (setting [7]) it was 80%; in the experiment with Setaria faberi (SETFA) (setting [7]), 70%; in [2] (setting [7]) it was 40%; in experiment [3] (setting [7]), 70%; in experiment [4] (setting [7]) it was 70%. Besides, the figures for the pest or weed control at 500 g/ha (in experiment [5] (setting [7]); in the experiment with Lolium perenne (LOLPE) (setting [7]); in experiment [6]) were 70%, 70% and 100%, respectively.

Turning to `C=CCNC(=O)c1cc[n+](CCC(=O)O)nc1` [Compound A19], the pest or weed control at 500 g/ha in [1] (setting [7]) worked out at 90%; in the experiment with Eleusine indica (ELEIN) (setting [7]), 90%; with Setaria faberi (SETFA) (setting [7]), 80%; in [2] (setting [7]), 80%; in [3] (setting [7]), 100%; in [4] (setting [7]), 70%. Further, the pest or weed control at 500 g/ha was found to be 90% in [5] (setting [7]), 80% with Lolium perenne (LOLPE) (setting [7]) and 100% in [6].

In the case of `O=C(O)CC[n+]1ccc(C(=O)Nc2cnccn2)cn1` [Compound A124], the pest or weed control at 500 g/ha came out at 30% in [1] (setting [7]); 30% in the experiment on Eleusine indica (ELEIN) (setting [7]); 70% in the experiment with Setaria faberi (SETFA) (setting [7]); 60% in experiment [2] (setting [7]); 70% in experiment [3] (setting [7]); 20% in experiment [4] (setting [7]). Also, the pest or weed control at 500 g/ha in experiment [5] (setting [7]) was 30%; with Lolium perenne (LOLPE) (setting [7]), 10%; in [6], 20%.

With `CC(O)CNC(=O)c1cc[n+](CCC(=O)O)nc1` (stereo not shown) [Compound A128], the pest or weed control at 500 g/ha in [1] (setting [7]) came to 90%; in the experiment with Eleusine indica (ELEIN) (setting [7]) it was 90%; with Setaria faberi (SETFA) (setting [7]), 90%; in experiment [2] (setting [7]), 40%; in experiment [3] (setting [7]) it was 100%; in experiment [4] (setting [7]), 30%. For the same compound, the values for the pest or weed control at 500 g/ha (in experiment [5] (setting [7]); in the experiment with Lolium perenne (LOLPE) (setting [7]); in experiment [6]) were 100%, 80% and 100%, respectively.

For the compound `O=C(O)CC[n+]1ccc(C(=O)N2CCSCC2)cn1` [Compound A112], the pest or weed control at 500 g/ha is 90% in experiment [1] (setting [7]); 70% in the experiment with Eleusine indica (ELEIN) (setting [7]); 90% with Setaria faberi (SETFA) (setting [7]); 40% in experiment [2] (setting [7]); 100% in [3] (setting [7]); 50% in experiment [4] (setting [7]). Further, the pest or weed control at 500 g/ha in experiment [5] (setting [7]) stood at 90%; with Lolium perenne (LOLPE) (setting [7]), 30%; in experiment [6], 100%.

Turning to `CCNC(=O)c1cc[n+](CCCC(=O)O)nc1` [Compound A74], the pest or weed control at 500 g/ha was found to be 90% in experiment [1] (setting [7]); 80% in the experiment with Eleusine indica (ELEIN) (setting [7]); 70% with Setaria faberi (SETFA) (setting [7]); 60% in [2] (setting [7]); 80% in [3] (setting [7]); 40% in experiment [4] (setting [7]). Moreover, the figures for the pest or weed control at 500 g/ha (in experiment [5] (setting [7]); with Lolium perenne (LOLPE) (setting [7]); in [6]) were 60%, 80% and 100%, respectively.

For `COCCNC(=O)c1cc[n+](CCC(=O)O)nc1` [Compound A40], the pest or weed control at 500 g/ha in experiment [1] (setting [7]) worked out at 90%; in the experiment on Eleusine indica (ELEIN) (setting [7]) it was 100%; in the experiment with Setaria faberi (SETFA) (setting [7]) it was 100%; in experiment [2] (setting [7]), 90%; in experiment [3] (setting [7]), 100%; in experiment [4] (setting [7]), 60%. In addition, the pest or weed control at 500 g/ha was 100% in [5] (setting [7]), 70% in the experiment with Lolium perenne (LOLPE) (setting [7]) and 100% in [6].

For the compound `CC(=O)CNC(=O)c1cc[n+](CCC(=O)O)nc1` [Compound A129], the pest or weed control at 500 g/ha in experiment [1] (setting [7]) was found to be 100%; with Eleusine indica (ELEIN) (setting [7]) it was 90%; with Setaria faberi (SETFA) (setting [7]), 100%; in [2] (setting [7]) it was 60%; in experiment [3] (setting [7]), 100%; in experiment [4] (setting [7]), 20%. The pest or weed control at 500 g/ha was determined as 80% in [5] (setting [7]), 70% in the experiment on Lolium perenne (LOLPE) (setting [7]) and 100% in experiment [6].

With `O=C(O)CC[n+]1ccc(C(=O)NC2C[S+]([O-])C2)cn1` (stereo not shown) [Compound A68], the pest or weed control at 500 g/ha in [1] (setting [7]) is 90%; with Setaria faberi (SETFA) (setting [7]), 70%; in experiment [2] (setting [7]), 100%; in experiment [3] (setting [7]), 100%; in experiment [4] (setting [7]), 100%; in experiment [5] (setting [7]) it was 100%. Further, the pest or weed control at 500 g/ha with Lolium perenne (LOLPE) (setting [7]) amounted to 90%; in [6], 100%.
